Results on five compounds are retold here after patent publication US9315527B2, “Synthesis and applications of peripherally asymmetric aryl POSS compounds” (The United States of America as Represented by the …, priority 2011, dated 2016).

Values after ≈ are worked out from the molar mass of the structure shown.

The nature of series [1]: Phase behavior of POSS in polyetherimide (Ultem 1000, PEI): chloroform solutions and drop cast annealed films. Type of series: physicochemical. The conditions noted are these: for Appearance of chloroform solution containing PEI and POSS: 5 weight percent PEI in chloroform, POSS 5 weight percent with respect to PEI. As for the experimental part:
To examine the phase behavior of this new class of peripherally-asymmetric POSS nanoparticles with a representative aromatic polymer, attempts were made to solubilize both phenyl8Si8O12 and (1-naphthyl)phenyl7Si8O12 in polyetherimide (Ultem 1000, PEI). Chloroform solutions were prepared at a solute concentration of 5 weight percent PEI and POSS concentration of 5 weight percent with respect to PEI. Subsequent films from these solutions were drop cast onto glass substrates, dried under vacuum, and annealed at 220° C., above the glass transition temperature of PEI, to promote equilibrium phase formation.
Qualitatively, the dried and annealed films were visually observed to be of contrasting appearance.

A short description of series [2]: Solubility of aromatic POSS compounds in organic solvents by visual measurements. The series is classed as physicochemical. The conditions noted are these: visual measurement; for Solubility in CHCl3: chloroform; for Solubility in PE: phenyl ether; for Solubility in Tol: toluene; for Solubility in DMF: dimethyl formamide; for Solubility in THF: tetrahydrofuran. The procedure:
The influence of the prescribed peripheral asymmetry of these compounds on solubility was determined by visual measurements in five organic solvents, including chloroform (CHCl3), tetrahydrofuran (THF), phenyl ether (PE), toluene (Tol), and dimethyl formamide (DMF), summarized in Table 1.
The substitution of a single polycyclic aromatic ring on the POSS cage improves solubility substantially in most cases. However, it is difficult to predict the influence of each aromatic group on the observed solubility, as well as in which solvent the solubility will be affected. Modification with a 1-naphthyl group to produce (1-naphthyl)-phenyl7Si8O12 (3) results in solubility in CHCl3 and THF exceeding 100 mg/mL and the observance of more finite solubility in the other investigated solvents. Modification with a 2-naphthyl group to produce (2-naphthyl)phenyl7Si8O12 (4) increases solubility in PE and DMF, but reduces solubility in THF and CHCl3, when compared to (1-naphthyl)-phenyl7Si8O12 (3).

For series [3] the following is noted: chloroform, benchmark; cited from earlier work.

As to `c1ccc([Si]23O[Si]4(c5ccccc5)O[Si]5(c6ccccc6)O[Si](c6ccccc6)(O2)O[Si]2(c6ccccc6)O[Si](c6ccccc6)(O3)O[Si](c3ccccc3)(O4)O[Si](c3ccccc3)(O5)O2)cc1` [Compound 2, phenyl8Si8O12], the “Appearance of chloroform solution containing PEI and POSS” value in series [1] is on record as “cloudy”. In addition, the “Visual appearance of dried and annealed PEI film” value in series [1] (drop cast film, annealed at 220° C.) is recorded as “significantly more opaque”. In addition, the “Length scale of aggregated particles in PEI film” value in series [1] (drop cast film, annealed at 220° C., microscopy, some regions) is listed as “greater than 1 mm”. For the same compound, in series [2], the “Solubility in CHCl3” value is 1 mg/mL (≈ 968 µM), the “Solubility in PE” value is “^a (Insoluble.)” and the “Solubility in Tol” value is recorded as “^a (Insoluble.)”. Also, the “Solubility in CHCl3 (previously documented)” value in series [3] is on record as “about 1 mg/mL”.

For the compound (1-naphthyl)-phenyl7Si8O12 [Compound 3], in series [1], the “Appearance of chloroform solution containing PEI and POSS” value is “transparent”. The “Phase separation length scale in PEI film” value in series [1] (drop cast film, annealed at 220° C., microscopy) is “less than 5 microns”. For the same compound, in series [2], the “Solubility in DMF” value turned out to be 24 mg/mL, the “Solubility in PE” value is on record as 15 mg/mL and the “Solubility in Tol” value is given as “^a (Insoluble.)”.

For (1-pyrenyl)phenyl7Si8O12 [Compound 6], in series [2], the “Solubility in CHCl3” value amounted to 7 mg/mL, the “Solubility in DMF” value is recorded as 5 mg/mL, the “Solubility in PE” value turned out to be 4 mg/mL and the “Solubility in THF” value amounted to 10 mg/mL. Also, the “Solubility in Tol” value in series [2] is reported as 5 mg/mL.

Consider (2-naphthyl)phenyl7Si8O12 [Compound 4], for which, in series [2], the “Solubility in CHCl3” value was 55 mg/mL, the “Solubility in DMF” value came to 35 mg/mL, the “Solubility in PE” value was determined as 53 mg/mL and the “Solubility in THF” value was determined as 28 mg/mL. Besides, the “Solubility in Tol” value in series [2] was “^a (Insoluble.)”.

For the compound “(9-phenanthrenyl)-phenyl7Si8O12 [Compound 5]”, in series [2], the “Solubility in CHCl3” value came out at 52 mg/mL, the “Solubility in DMF” value was found to be 57 mg/mL, the “Solubility in PE” value is listed as 25 mg/mL and the “Solubility in THF” value is reported as 117 mg/mL. Further, in series [2], the “Solubility in Tol” value stood at 27 mg/mL.
